Data: US20100056483A1, “METHODS AND COMPOSITIONS FOR THE TREATMENT AND PREVENTION OF BONE LOSS” (OHIO UNIVERSITY, priority 2008, published 2010)

Assays:
[1] = OVX rats; 200 mg/kg/day CaEDTA intraperitoneal; weighed weekly
Experimental: The temperature inside the chambers was 22° C. (±2) with relative humidity from 40 to 60%.
The rats were weighed and euthanized with carbon dioxide.

[2] = broad-spectrum divalent-cation chelator; cited from earlier work

## O=C(O)CN(CCN(CC(=O)O)CC(=O)O)CC(=O)O.[Ca] [CaEDTA, Calcium ethylenediaminetetra-acetic acid]
[1]
  Effect on body weight: no effect on body weight
[2]
  Affinity for zinc relative to calcium: binds zinc with higher affinity than Calcium
